From the NIST ThermoML archive (doi:10.1016/j.jct.2006.02.001)

Tests used:
[1] = xn = mol fraction of the nth substance listed; conditions: 101 kPa, Liquid
[2] = refractive index (Na D-line) (dimensionless); xn = mol fraction of the nth substance listed; conditions: 101 kPa, Liquid

COc1ccccc1 [anisole] + c1ccccc1
Conditions | mass density, 288.15 K [kg/m3] | mass density, 293.15 K [kg/m3] | mass density, 298.15 K [kg/m3] | mass density, 303.15 K [kg/m3] | refractive index, 288.15 K | refractive index, 293.15 K | refractive index, 298.15 K | refractive index, 303.15 K
[1], x1 = 0.105 | 898.53 | 891.31 | 888.2 | 882.91 | – | – | – | –
[1], x1 = 0.201 | 911.14 | 904.23 | 900.97 | 895.75 | – | – | – | –
[1], x1 = 0.3173 | 925.73 | 919.17 | 915.76 | 910.6 | – | – | – | –
[1], x1 = 0.4192 | 937.94 | 931.66 | 928.1 | 923 | – | – | – | –
[1], x1 = 0.5126 | 948.66 | 942.64 | 938.93 | 933.89 | – | – | – | –
[1], x1 = 0.6139 | 959.83 | 954.08 | 950.21 | 945.24 | – | – | – | –
[1], x1 = 0.7067 | 969.67 | 964.17 | 960.12 | 955.22 | – | – | – | –
[1], x1 = 0.797 | 978.88 | 973.61 | 969.41 | 964.57 | – | – | – | –
[1], x1 = 0.9002 | 989.01 | 983.99 | 979.62 | 974.85 | – | – | – | –
[1], x1 = 1 | 998.44 | 993.65 | 989.15 | 984.37 | – | – | – | –
[2], x1 = 0.105 | – | – | – | – | 1.5076 | 1.5032 | 1.5001 | 1.4884
[2], x1 = 0.201 | – | – | – | – | 1.51 | 1.5051 | 1.5019 | 1.4914
[2], x1 = 0.3173 | – | – | – | – | 1.5127 | 1.5072 | 1.5041 | 1.4949
[2], x1 = 0.4192 | – | – | – | – | 1.5149 | 1.509 | 1.5058 | 1.4978
[2], x1 = 0.5126 | – | – | – | – | 1.5168 | 1.5105 | 1.5074 | 1.5003
[2], x1 = 0.6139 | – | – | – | – | 1.5188 | 1.5121 | 1.5089 | 1.5029
[2], x1 = 0.7067 | – | – | – | – | 1.5206 | 1.5134 | 1.5103 | 1.5052
[2], x1 = 0.797 | – | – | – | – | 1.5222 | 1.5147 | 1.5115 | 1.5073
[2], x1 = 0.9002 | – | – | – | – | 1.524 | 1.516 | 1.5129 | 1.5096
[2], x1 = 1 | – | – | – | – | 1.5256 | 1.5172 | 1.5141 | 1.5117

COc1ccccc1 [anisole] + Cc1ccccc1
Conditions | mass density, 288.15 K [kg/m3] | mass density, 293.15 K [kg/m3] | mass density, 298.15 K [kg/m3] | mass density, 303.15 K [kg/m3] | refractive index, 288.15 K | refractive index, 293.15 K | refractive index, 298.15 K | refractive index, 303.15 K
[1], x1 = 0.1179 | 887.1 | 882.58 | 877.96 | 873.25 | – | – | – | –
[1], x1 = 0.2098 | 899.23 | 894.67 | 890.04 | 885.33 | – | – | – | –
[1], x1 = 0.3078 | 912.01 | 907.42 | 902.81 | 898.06 | – | – | – | –
[1], x1 = 0.4082 | 924.96 | 920.33 | 915.72 | 910.95 | – | – | – | –
[1], x1 = 0.5157 | 938.67 | 934.03 | 929.43 | 924.67 | – | – | – | –
[1], x1 = 0.6172 | 951.49 | 946.82 | 942.24 | 937.46 | – | – | – | –
[1], x1 = 0.7286 | 965.32 | 960.65 | 956.15 | 951.37 | – | – | – | –
[1], x1 = 0.8575 | 981.16 | 976.45 | 971.96 | 967.26 | – | – | – | –
[1], x1 = 0.917 | 988.36 | 983.65 | 979.17 | 974.46 | – | – | – | –
[1], x1 = 1 | 998.44 | 993.65 | 989.15 | 984.37 | – | – | – | –
[2], x1 = 0.1179 | – | – | – | – | 1.503 | 1.4997 | 1.4971 | 1.4946
[2], x1 = 0.2098 | – | – | – | – | 1.5056 | 1.5017 | 1.4992 | 1.4966
[2], x1 = 0.3078 | – | – | – | – | 1.5083 | 1.5038 | 1.5012 | 1.4987
[2], x1 = 0.4082 | – | – | – | – | 1.511 | 1.5059 | 1.5033 | 1.5008
[2], x1 = 0.5157 | – | – | – | – | 1.5138 | 1.5081 | 1.5054 | 1.5029
[2], x1 = 0.6172 | – | – | – | – | 1.5163 | 1.5099 | 1.5061 | 1.5049
[2], x1 = 0.7286 | – | – | – | – | 1.5192 | 1.5122 | 1.5095 | 1.5071
[2], x1 = 0.8575 | – | – | – | – | 1.5223 | 1.5145 | 1.5118 | 1.5094
[2], x1 = 0.917 | – | – | – | – | 1.5236 | 1.5155 | 1.5135 | 1.5104
[2], x1 = 1 | – | – | – | – | 1.5256 | 1.5169 | 1.5141 | 1.5117

Cc1ccccc1C [1,2-dimethylbenzene] + COc1ccccc1
x2 = 0
Conditions | mass density, 288.15 K [kg/m3] | mass density, 293.15 K [kg/m3] | mass density, 298.15 K [kg/m3] | mass density, 303.15 K [kg/m3] | refractive index, 288.15 K | refractive index, 293.15 K | refractive index, 298.15 K | refractive index, 303.15 K
[1] | 883.29 | 879.08 | 875.53 | 870.73 | – | – | – | –
[2] | – | – | – | – | 1.5072 | 1.5047 | 1.5018 | 1.5

COc1ccccc1 [anisole] + Cc1cc(C)cc(C)c1
x1 = 1
Conditions | mass density, 288.15 K [kg/m3] | mass density, 293.15 K [kg/m3] | mass density, 298.15 K [kg/m3] | mass density, 303.15 K [kg/m3] | refractive index, 288.15 K | refractive index, 293.15 K | refractive index, 298.15 K | refractive index, 303.15 K
[1] | 998.44 | 993.65 | 989.15 | 984.37 | – | – | – | –
[2] | – | – | – | – | 1.5256 | 1.5169 | 1.5141 | 1.5117

Cc1ccccc1 [toluene] + COc1ccccc1
x2 = 0
Conditions | mass density, 288.15 K [kg/m3] | mass density, 293.15 K [kg/m3] | mass density, 298.15 K [kg/m3] | mass density, 303.15 K [kg/m3] | refractive index, 288.15 K | refractive index, 293.15 K | refractive index, 298.15 K | refractive index, 303.15 K
[1] | 871.41 | 866.87 | 862.2 | 857.46 | – | – | – | –
[2] | – | – | – | – | 1.4996 | 1.497 | 1.4944 | 1.4918
